ChEMBL document CHEMBL1221225, “A small molecule that directs differentiation of human ESCs into the pancreatic lineage” (Nat Chem Biol, 2009)
Active and inactive are the calls of the source. The calls are words filed in the database; no cut-off is given here.

Assays:
[1] = test system: Lung; test: Induction of SOX2 expression in CD1 nude mouse lung at 300 nM after 4 days by fluorescent confocal microscopy; type: functional, tissue-based
[2] = species on record: Homo sapiens; test: Induction of C-peptide expression in human HUES8 insulin-producing cells at 300 nM after 4 days by immunocytochemistry relative to control; type: functional
[3] = Cytotoxicity against human HUES9 cells at 300 nM; type: cell-based; settings: hues9, 0.3 µM
[4] = Induction of mouse AV3 cell differentiation into pancreatic lineage assessed as increase in Pdx-1 expression at 300 nM after 6 days by immunohistochemistry pretreated with 1000 ng/ml recombinant mouse Nodal for 5 days (reference value: 4.0+/-1.5%); type: functional
[5] = species on record: Mus musculus; test: Induction of nestin expression in CD1 nude mouse ectoderm at 300 nM after 4 days by fluorescent confocal microscopy; type: functional, tissue-based
[6] = Induction of human GTE cells differentiation into pancreatic lineage assessed as increase in Pdx1-expressing cells at 300 nM after 4 days by immunocytochemistry pregrown in medium with FGF10 and KAAD-cyclopamine (Rvb (DMSO) = 2.8+/-0.6%); type: functional
[7] = test system: Intestine; test: Induction of CES2 expression in CD1 nude mouse intestine at 300 nM after 4 days by fluorescent confocal microscopy; type: functional, tissue-based
[8] = species on record: Homo sapiens; test: Effect on human HUES8 differentiation into neuronal lineage assessed as c-peptide/betaIIItubulin double positive cells at 300 nM after 4 days by immunocytochemistry; type: functional, cell-based
[9] = test system: HUES8; test: Induction of human HUES8 cell differentiation into pancreatic progenitor cell assessed as increase in SOX9 mRNA expression at 300 nM after 4 days by RT-PCR analysis cells pregrown in medium containing Wnt, activin, FGF10, KAAD-cyclopamine and retinoic acid; type: functional, cell-based
[10] = species on record: Mus musculus; test: Induction of SOX7 expression in CD1 nude mouse extra-embryonic endoderm at 300 nM after 4 days by fluorescent confocal microscopy; type: functional, tissue-based
[11] = test system: Stomach; test: Induction of BARX1 expression in CD1 nude mouse stomach at 300 nM after 4 days by fluorescent confocal microscopy; type: functional, tissue-based
[12] = Induction of human HUES8 cell differentiation into pancreatic progenitor cells assessed as increase in Pdx1-expression in cells pregrown with medium containing Wnt, activin, FGF10, KAAD-cyclopamine and retinoic acid at 300 nM after 4 days by Opera high content screening system relative to control; type: functional
[13] = Induction of human HUES8 cell differentiation into pancreatic progenitor cell assessed as PTF1A expression in cells pregrown in medium containing Wnt, activin, FGF10, KAAD-cyclopamine and retinoic acid at 300 nM after 4 days by immunocytochemistry relative to control; type: functional
[14] = Induction of insulin production in differentiated human HUES8 cells at 300 nM after 4 days by immunocytochemistry (reference value: 0%); type: functional
[15] = species on record: Mus musculus; test: Induction of desmin expression in CD1 nude mouse mesoderm at 300 nM after 4 days by fluorescent confocal microscopy; type: functional, tissue-based
[16] = Inhibition of PKC signaling in human HUES8 cells assessed as decrease in Pdx1-expressing cells at 4 uM after 4 days by immunocytochemistry in presence of ILV pregrown in medium with Wnt3a, activin A, FGF10, KAAD-cyclopamine and retinoic acid (reference value: 26.9+/-2.8%); type: cell-based
[17] = test system: HUES8; test: Induction of human HUES8 cell differentiation into pancreatic progenitor cell assessed as increase in NKX6.1 mRNA expression at 300 nM after 4 days by RT-PCR analysis cells pregrown in medium containing Wnt, activin, FGF10, KAAD-cyclopamine and retinoic acid; type: functional, cell-based
[18] = test system: AV3; test: Induction of mouse AV3 cell differentiation into pancreatic lineage assessed as increase in Foxa2 mRNA expression at 300 nM after 6 days by RT-PCR analysis pretreated with 1000 ng/ml recombinant mouse Nodal for 5 days; type: functional, cell-based
[19] = Induction of human HUES8 differentiation into pancreatic lineage assessed as increase in DBA-positive exocrine cells at 300 nM after 4 days by RT-PCR (Rvb (DMSO) = 0%); type: functional
[20] = Effect on glucagon expression in human HUES8 insulin-producing cells at 300 nM after 4 days by immunocytochemistry (reference value: 75.2 +/- 9.1%); type: functional
[21] = Induction of cell proliferation in human HUES8 Pdx1 expressing cells assessed as expression of Ki67 at 300 nM after 4 days by immunocytochemistry; type: functional
[22] = Induction of human HUES9 cell differentiation into pancreatic lineage assessed as increase in Pdx1-expression in cells pregrown with medium containing Wnt, activin, FGF10, KAAD-cyclopamine and retinoic acid at 1 uM after 4 days by Opera high content screening system; type: functional
[23] = test system: AV3; test: Induction of mouse AV3 cell differentiation into pancreatic lineage assessed as increase in Nkx2.2 mRNA expression at 300 nM after 6 days by RT-PCR analysis pretreated with 1000 ng/ml recombinant mouse Nodal for 5 days; type: functional, cell-based
[24] = test system: AV3; test: Induction of mouse AV3 cell differentiation into pancreatic lineage assessed as increase in Hnf6 mRNA expression at 300 nM after 6 days by RT-PCR analysis pretreated with 1000 ng/ml recombinant mouse Nodal for 5 days; type: functional, cell-based
[25] = species on record: Mus musculus; test: Induction of mouse AV3 Pdx1-expressing cell differentiation assessed as increase in Nkx6.1 expression at 300 nM after 6 days by immunohistochemistry pretreated with 1000 ng/ml recombinant mouse Nodal for 5 days; type: functional
[26] = test system: HUES8; test: Induction of human HUES8 cell differentiation into pancreatic progenitor cell assessed as increase in NGN3 mRNA expression at 300 nM after 4 days by RT-PCR analysis cells pregrown in medium containing Wnt, activin, FGF10, KAAD-cyclopamine and retinoic acid; type: functional, cell-based
[27] = Induction of human HUES9 cell differentiation into pancreatic lineage assessed as increase in Pdx1-expression in cells pregrown with medium containing Wnt, activin, FGF10, KAAD-cyclopamine and retinoic acid at 1 uM after 1 day by Opera high content screening system; type: functional
[28] = species on record: Mus musculus; test: Induction of MYOD expression in CD1 nude mouse mesoderm at 300 nM after 4 days by fluorescent confocal microscopy; type: functional
[29] = test system: HUES8; test: Induction of human HUES8 cell differentiation into pancreatic progenitor cell assessed as increase in HNF6 mRNA expression at 300 nM after 4 days by RT-PCR analysis cells pregrown in medium containing Wnt, activin, FGF10, KAAD-cyclopamine and retinoic acid; type: functional, cell-based
[30] = test system: AV3; test: Induction of mouse AV3 cell differentiation into pancreatic lineage assessed as increase in cdcp1 mRNA expression at 300 nM after 6 days by RT-PCR analysis pretreated with 1000 ng/ml recombinant mouse Nodal for 5 days; type: functional, cell-based
[31] = Induction of human HUES8 cell differentiation into pancreatic progenitor cell assessed as NKX6.1 expression in cells pregrown in medium containing Wnt, activin, FGF10, KAAD-cyclopamine and retinoic acid at 300 nM after 4 days by immunocytochemistry relative to control; type: functional

CC(C)[C@H]1C(=O)N[C@H](CO)Cc2c[nH]c3cccc(c23)N1C [INDOLACTUM]
Activity [1]: inactive
Activity [2]: Active
Activity [3]: Non-toxic
Activity [4]: 50%
Activity [5]: inactive
Activity [6]: 21.5%
Activity [7]: inactive
Activity [8]: inactive
Activity [9]: Active
Activity [10]: inactive
Activity [11]: inactive
Activity [12]: 26.9%
Activity [13]: 90.1%
Activity [14]: 0.5%
Activity [15]: inactive
inhibition [16]: 1.2%
Activity [17]: Active
Activity [18]: Active
Activity [19]: 3.6%
Activity [20]: 19.5%
Activity [21]: 0.1%
Activity [22]: 10.9%
Activity [23]: Active
Activity [24]: Active
Activity [25]: Active
Activity [26]: Active
Activity [27]: 5.3%
Activity [28]: inactive
Activity [29]: Active
Activity [30]: Active
Activity [31]: 83.5%
